The values below come from patent US20100297157A1, “VACCINE THERAPY FOR CHOROIDAL NEOVASCULARIZATION” (priority 2007, published 2010).

For one test, the system named is VEGF. The test can be described thus: VEGF up-regulation in experimental CNV. The settings on record: in vivo.
Test [1] has as its system CNV lesions. The test can be described thus: Measurement of the CNV size by choroidal flat mount. The class given is in vivo, mice expressing human HLA-A*0201. The protocol: (§1) C57bl/6 mice with body weight of 20 g to 25 g were obtained from CLEA Japan (Tokyo, Japan). All experiments were conducted in accordance with the Animal Care and Use Committee and the Statement for the Use of Animals in Ophthalmic and Vision Research by the Association for Research in Vision and Opthalmology. Mice used in the experiments express human HLA-A*0201.
(§2) The mice were separated into three groups. PBS, an immunity adjuvant (incomplete Freund's adjuvant (IFA)), or a suspension of a human VEGF receptor 2-derived antigenic peptide and IFA was injected subcutaneously into the axillae twice (day 0 and day 10). […] Subsequently, on day 20, CNV was induced at three sites in both eyes using a semiconductor laser set to φ 200 μm, 200 mW, and 0.02 seconds.
(§3) Experimental CNV was induced as described elsewhere with minor modifications. In short, general anesthesia was induced with an intraperitoneal injection (1 mL/kg) of a mixture (1:1) of ketamine hydrochloride (Ketalar®, Sankyo, Tokyo, Japan) and xylazine hydrochloride (Celactal®, Bayer, Tokyo, Japan). The pupil was dilated using one drop of 0.5% tropicamide (Mydrin® M, Santen Pharmaceutical, Osaka, Japan) for photocoagulation. Six laser photocoagulations were applied to each eye between the major retinal vessels around the optic disc with a diode laser photocoagulator (DC-3000®, NIDEK, Osaka, Japan) and a slit lamp delivery system (SL150, Topcon, Tokyo, Japan) at a spot size of […], duration of 0.02 seconds, and intensity of 200 mW.
A total of 36 mice were used for choroidal flat mount analysis (the number of mice from each group on the third day and the seventh day was 4 and 8, respectively). Three days and seven days after laser treatment, the size of CNV lesion was evaluated using choroidal flat mounts as previously described. The mice were anesthetized and perfused with 1 mL of phosphate buffered saline (PBS) containing 50 mg/mL FITC-conjugated dextran (4.4 kDa, 50 mg/kg body weight; Sigma). Then, the eyes were enucleated, and the cornea and lens were removed, and the entire retina was carefully dissected from the eye cup. Radial cuts were made from the edges of the equator, and the eyecup was flat-mounted on a glass slide with the sclera facing down. The flat-mounted sections were observed under a fluorescence microscope (Olympus DPSO), and the images were captured using a CCD camera. The data were imported into a computer using a software system (Studio lite). […] The data were expressed as mean±standard error.
(§4) The fluorescein fluorescent fundus angiography scores were evaluated using Mann-Whitney U test. The size of CNV lesion was evaluated by ANOVA followed by Dunnett's post hoc test. […]

Test [2] has as its system CNV lesions. Kind of test: Evaluation of the grade of CNV by fluorescein angiography (leakage from laser-induced CNV lesions). The class given is in vivo, mice expressing human HLA-A*0201. The protocol:
as §1, §2, §3
Three and seven days after CNV induction (on day 23 and day 27), a total of 169 animals were used to examine the effect on leakage from the CNV lesions (on the third day, the number of animals from the control group, low-dose group, and high-dose group was 41, 34, and 18, respectively; on the seventh day, the number of animals from the control group, low-dose group, and high-dose group was 51, 15, and 10, respectively). […]
as §4

Another test concerns tumor model. The note with it: cited from earlier work.
Where [3] appears, read: seventh day, low-dose group vs control group.

As for “VIAMFFWLL (IFA emulsion; listed as Homo sapiens) [nine amino acids from position 773 of human VEGFR-2; injected as a suspension with IFA]”, the VEGF up-regulation result in the test on VEGF is “suppresses VEGF up-regulation”. Also, in the test on CNV lesions [1] (in vivo, effect observed only on the seventh day and not on the third day), the CNV growth entry is reported as “inhibits CNV growth”. Also, the CNV lesion size result in the test on CNV lesions [1] (seventh day, high-dose group vs control group) is given as “significantly decreased”; with CNV lesions [1] (setting [3]) it was “significantly decreased”; in the test with CNV lesions [1] (third day, low-dose and high-dose groups vs control group), “No difference was observed”. In the test with CNV lesions [2] (seventh day, high-dose group vs control), the “fluorescein leakage from the CNV lesions” value is given as “lower”. Also, the “leakage from CNV lesions” value in the test on CNV lesions [2] (setting [3]) is given as “not statistically significant, the leakage from CNV lesions was lower”. Also, the “degree of fluorescein leakage from CNV lesions” value with CNV lesions [2] (third day after CNV induction, low-dose and high-dose groups vs control group, s.c. injection day 0 and day 10) was “no difference was observed”. In addition, the antiangiogenic effect entry in the test with tumor model is “confirmed to have antiangiogenic effect”.
